Tested on: female Balb/C mice
Assay: Cisplatin-induced myelosuppression
Format: in vivo, mouse
Conditions: for survival: day 11
Procedure: A study was conducted to assess the effects of N^2,3′,5′-tripalmitoyldeoxyguanosine (PdG) in reducing the hematologic toxicity of cisplatin. Female Balb/C mice were divided into groups of five animals each per dose per time point. Half of the groups were given a series of three daily doses of PdG (25 mg/kg) by intraperitoneal injection and the other half were treated with the vehicle alone. Twenty-four hours later, the animals were given a single dose of cisplatin by intraperitoneal injection at one of four doses: 8, 11, 12 or 15 mg/kg. Blood samples were taken by retro-orbital eye bleed at four, seven and 11 days after administration of cisplatin.

[1] = day 4 after cisplatin 8 mg/kg, PdG 25 mg/kg x3 before
[2] = day 4 after cisplatin 11 mg/kg, PdG 25 mg/kg x3 before
[3] = day 4 after cisplatin 12 mg/kg, PdG 25 mg/kg x3 before
[4] = day 4 after cisplatin 15 mg/kg, PdG 25 mg/kg x3 before
[5] = day 7 after cisplatin 8 mg/kg, PdG 25 mg/kg x3 before
[6] = day 7 after cisplatin 11 mg/kg, PdG 25 mg/kg x3 before
[7] = day 7 after cisplatin 12 mg/kg, PdG 25 mg/kg x3 before
[8] = day 7 after cisplatin 15 mg/kg, PdG 25 mg/kg x3 before
[9] = day 11 after cisplatin 8 mg/kg, PdG 25 mg/kg x3 before
[10] = day 11 after cisplatin 11 mg/kg, PdG 25 mg/kg x3 before
[11] = day 11 after cisplatin 12 mg/kg, PdG 25 mg/kg x3 before
[12] = day 11 after cisplatin 15 mg/kg, PdG 25 mg/kg x3 before

Structure (SMILES): CCCCCCCCCCCCCCCC(=O)Nc1nc2c(ncn2[C@H]2C[C@H](OC(=O)CCCCCCCCCCCCCCC)[C@@H](COC(=O)CCCCCCCCCCCCCCC)O2)c(=O)[nH]1 [PdG, 3′,5′-O-N^2-tripalmitoyl-2′-deoxyguanosine]
- effect on red blood cells (any time point): no effect
- WBC (day 4 after cisplatin 8 mg/kg, PdG 25 mg/kg i.p. 3 daily doses before): 10.2 ± 1.4 K/μL
- Lymphocytes [1]: 8.0 ± 0.9 K/μL
- Neutrophils [1]: 1.77 ± 0.3 K/μL
- Lymphocytes [2]: 7.9 ± 1.1 K/μL
- Neutrophils [2]: 3.99 ± 0.7 K/μL
- WBC [2]: 7.2 ± 0.6 K/μL
- Lymphocytes [3]: 5.14 ± 1.0 K/μL
- Neutrophils [3]: 1.59 ± 0.3 K/μL
- WBC [3]: 6.9 ± 0.9 K/μL
- Lymphocytes [4]: 4.37 ± 0.61 K/μL
- Neutrophils [4]: 2.69 ± 1.3 K/μL
- WBC [4]: 7.1 ± 1.0 K/μL
- Lymphocytes [5]: 5.38 ± 0.71 K/μL
- Neutrophils [5]: 2.74 ± 0.50 K/μL
- Platelets [5]: 910 ± 135 K/μL
- Lymphocytes [6]: 5.44 ± 0.22 K/μL
- Neutrophils [6]: 4.58 ± 0.3 K/μL
- Platelets [6]: 974 ± 49 K/μL
- WBC [6]: 9.4 ± 0.83 K/μL
- Lymphocytes [7]: 5.14 ± 0.91 K/μL
- Neutrophils [7]: 3.23 ± 0.7 K/μL
- WBC [7]: 8.5 ± 0.9 K/μL
- Lymphocytes [8]: 2.80 ± 0.44 K/μL
- Neutrophils [8]: 4.06 ± 0.46 K/μL
- WBC [8]: 7.0 ± 0.38 K/μL
- survival (12 mg/kg cisplatin (60% of the controls had died)): All
- survival (15 mg/kg cisplatin (all control animals dead)): three of five
- Lymphocytes [9]: 7.9 ± 0.5 K/μL
- Neutrophils [9]: 1.33 ± 0.32 K/μL
- Platelets [9]: 994 ± 29 K/μL
- WBC [9]: 9.3 ± 0.3 K/μL
- Lymphocytes [10]: 7.9 ± 1.23 K/μL
- Neutrophils [10]: 1.00 ± 0.37 K/μL
- Platelets [10]: 968 ± 47 K/μL
- WBC [10]: 8.7 ± 1.0 K/μL
- Lymphocytes [11]: 5.34 ± 0.73 K/μL
- Neutrophils [11]: 3.26 ± 0.48 K/μL
- Platelets [11]: 738 ± 35 K/μL
- WBC [11]: 8.7 ± 0.6 K/μL
- Lymphocytes [12]: 7.65 ± 0.49 K/μL
- Neutrophils [12]: 2.02 ± 0.68 K/μL
- Platelets [12]: 657 ± 113 K/μL
- WBC [12]: 9.7 ± 0.3 K/μL
- platelet counts higher than in vehicle-treated control animals (day four, cisplatin 8 mg/kg): approximately 30%

— US7307166B1, “Oxpurine nucleosides and their congeners, and acyl, derivatives thereof, for improvement of hematopoiesis” (Wellstat Therapeutics Corporation, priority 1987, dated 2007)
